# Experimental data from patent publication US12600732B2, “Bifunctional compounds for degrading BTK via ubiquitin proteosome pathway” (NURIX THERAPEUTICS, INC., priority 2019, dated 2026).
# Target: T1, BTK (Mus musculus, UniProt P35991)
# T1 construct: from tissue; host or cells: mouse blood B cells / splenocytes (CD-1 or BALB/c)
# Experiment: In vivo degradation of BTK in mouse PD experiments with oral dosing
# Conditions: oral dose 1 mg/kg, 6 h, splenocytes, HTRF
# Experimental: A method of determining the pharmacodynamic profile of BTK degraders was performed by dosing either CD-1 or BALB/c mice with CTM. The CTM was prepared in a suitable formulation and was administered via oral gavage (PO) at a suitable dose level and frequency as informed by prior pharmacokinetic and tolerability studies. Following administration of CTM, BTK levels in blood or splenocytes are measured using flow cytometry or HTRF. For assessment of BTK levels via flow cytometry, either whole blood or splenocytes were first treated with ACK RBC lysis buffer to facilitate lysing of red blood cells. Remaining cells were then stained with fluorophore-conjugated antibodies against CD45, TCR beta and CD45R (B220). Cell pellets were washed with 1×PBS, fixed, and permeabilized for twenty-four hours with Foxp3/Transcription Factor Fixation/Permeabilization Kit. Cells were then stained intracellularly with unconjugated BTK antibody and detected with a fluorophore-conjugated secondary antibody. Stained cells were run on an Attune N×T Acoustic Focusing Flow Cytometer (Thermo-Fisher A29004), and data was analyzed using FlowJo (v10.5.3) and GraphPad Prism (v7.00) software. Lymphocytes were gated for B cells defined as CD45+ TCR beta−B220+ and T cells as CD45+ TCR beta+B220−. The BTK geometric mean fluorescence intensity (MFI) was calculated for B and T cells. Percent BTK degradation for each compound-treated sample was calculated using the equation described below: % Degradation=100*(Treated sample B cell BTK MFI-treated sample T cell BTK MFI)/Vehicle B cell BTK MFI-Vehicle T cell BTK MFI)
# This example evaluates in vivo activity of BTK CTMs via a direct mouse PD measurement following oral dosing
# Screens were completed at 90 mg/kg for six hours, and then changed to lower doses/longer time points after seeing strong BTK degradation activity with an initial set of compounds. This assay was useful in selecting compounds for in vivo efficacy experiments.
# T1 sequence (P35991 whole entry): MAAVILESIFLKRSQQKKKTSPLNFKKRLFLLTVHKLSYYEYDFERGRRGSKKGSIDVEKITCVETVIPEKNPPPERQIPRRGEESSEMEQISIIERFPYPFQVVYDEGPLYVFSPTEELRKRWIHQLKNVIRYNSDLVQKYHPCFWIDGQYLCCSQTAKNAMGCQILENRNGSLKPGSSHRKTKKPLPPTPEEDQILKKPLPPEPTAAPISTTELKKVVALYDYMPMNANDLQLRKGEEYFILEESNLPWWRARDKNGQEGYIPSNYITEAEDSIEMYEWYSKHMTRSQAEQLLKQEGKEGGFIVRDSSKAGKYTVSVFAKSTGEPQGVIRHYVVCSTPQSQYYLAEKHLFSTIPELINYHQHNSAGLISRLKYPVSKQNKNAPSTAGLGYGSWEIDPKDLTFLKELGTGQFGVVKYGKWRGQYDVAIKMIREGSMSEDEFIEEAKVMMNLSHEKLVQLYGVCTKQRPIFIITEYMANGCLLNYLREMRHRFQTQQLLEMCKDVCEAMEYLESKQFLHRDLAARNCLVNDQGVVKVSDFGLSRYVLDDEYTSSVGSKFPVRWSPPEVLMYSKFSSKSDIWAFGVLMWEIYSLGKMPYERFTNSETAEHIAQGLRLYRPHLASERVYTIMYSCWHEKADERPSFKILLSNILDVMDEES
row,SMILES,% BTK Remaining [%]
1,CN1CCN([C@H]2CCCN(c3cnc(C(N)=O)c(Nc4ccc(N5CC6CN(c7ccc8c(c7)C(=O)N(C7CCC(=O)NC7=O)C8=O)CC6C5)cc4)n3)C2)C1=O (stereo partly drawn) [Compound 79],102
2,CS(=O)(=O)c1ccc(Nc2nc(N3CCC[C@@H](NC(=O)OCC4CCN(c5ccc6c(c5)C(=O)N([C@H]5CCC(=O)NC5=O)C6=O)CC4)C3)cnc2C(N)=O)cc1 [Compound 218],97
3,"CN1CCN([C@@H]2CCCN(c3cnc(C(N)=O)c(Nc4ccc(C5CCN(C[C@@H]6CCCN(c7ccc8c(c7)C(=O)N(C7CCC(=O)NC7=O)C8=O)C6)CC5)cc4)n3)C2)C1=O (stereo partly drawn) [Compound 32, 3-((4-(1-(((3S)-1-(2-(2,6-dioxopiperidin-3-yl)-1,3-dioxoisoindolin-5-yl)piperidin-3-yl)methyl)piperidin-4-yl)phenyl)amino)-5-((R)-3-(3-methyl-2-oxoimidazolidin-1-yl)piperidin-1-yl)pyrazine-2-carboxamide]",93
4,CN1CCN([C@@H]2CCCN(c3cnc(C(N)=O)c(Nc4ccc(C5CN(C[C@H]6CCN(c7ccc8c(c7)C(=O)N(C7CCC(=O)NC7=O)C8=O)C6)C5)cc4)n3)C2)C1=O (stereo partly drawn) [Compound 35],74
5,CN1CCN([C@H]2CCCN(c3cnc(C(N)=O)c(Nc4ccc(N5CCC6(CCCN(Cc7ccc8c(c7)C(=O)N(C7CCC(=O)NC7=O)C8=O)C6)CC5)cc4)n3)C2)C1=O (stereo partly drawn) [Compound 108],116
6,CN1CCN([C@@H]2CCCN(c3cnc(C(N)=O)c(Nc4ccc(N5CCC6CCN(c7cccc8c7C(=O)N(C7CCC(=O)NC7=O)C8=O)CC6C5)cc4)n3)C2)C1=O (stereo partly drawn) [Compound 105],85
7,CN1CCN([C@@H]2CCCN(c3cnc(C(N)=O)c(Nc4ccc(N5CCN(C[C@H]6CCN(c7ccc8c(c7)C(=O)N(C7CCC(=O)NC7=O)C8=O)C6)CC5)nc4)n3)C2)C1=O (stereo partly drawn) [Compound 113],70
8,CN1CCN([C@@H]2CCCN(c3cnc(C(N)=O)c(Nc4ccc(N5CCN(CCC6CCN(c7ccc8c(c7)C(=O)N(C7CCC(=O)NC7=O)C8=O)CC6)CC5)cc4)n3)C2)C1=O (stereo partly drawn) [Compound 40],82

# Same assay, conditions: oral dose 30 mg/kg, 24 h, blood, analysis method not given
row,SMILES,% BTK Remaining [%]
1,CN1CCN([C@@H]2CCCN(c3cnc(C(N)=O)c(Nc4ccc(N5CCN(C[C@H]6CCN(c7ccc8c(c7)C(=O)N(C7CCC(=O)NC7=O)C8=O)C6)CC5)nc4)n3)C2)C1=O (stereo partly drawn) [Compound 113],59

# Same assay, conditions: oral dose 30 mg/kg, 24 h, blood, flow cytometry
row,SMILES,% BTK Remaining [%]
1,CN1CCN([C@@H]2CCCN(c3cnc(C(N)=O)c(Nc4ccc(C5CCN(C[C@H]6CCN(c7ccc8c(c7)CN(C7CCC(=O)NC7=O)C8=O)C6)CC5)cc4)n3)C2)C1=O (stereo partly drawn) [Compound 117],49
2,CN1CCN([C@@H]2CCCN(c3cnc(C(N)=O)c(Nc4ccc(C5CCN(C[C@H]6C[C@H](Nc7cccc8c7C(=O)N([C@@H]7CCC(=O)NC7=O)C8=O)C6)CC5)cc4)n3)C2)C1=O [Compound 202],79
3,O=C1CC[C@H](N2C(=O)c3ccc(N4CC[C@H](CN5CCC(c6ccc(Nc7nc(-c8nccs8)cn8ccnc78)cc6)CC5)C4)cc3C2=O)C(=O)N1 [Compound 203],95
4,NC(=O)c1ncc(N2CCC[C@@H](N3CCOC3=O)C2)nc1Nc1ccc(C2CCN(CC3CCN(c4ccc5c(=O)n(C6CCC(=O)NC6=O)ccc5c4)CC3)CC2)cc1 (stereo partly drawn) [Compound 153],33
5,CN1CCN([C@@H]2CCCN(c3cnc(C(N)=O)c(Nc4ccc(C5CCN(CC6CN(c7ccc8c(=O)n(C9CCC(=O)NC9=O)ccc8c7)C6)CC5)cc4)n3)C2)C1=O (stereo partly drawn) [Compound 116],39
6,CN1CCN([C@H]2CCCN(c3cnc(C(N)=O)c(Nc4ccc(C5CCN(C[C@@H]6CCN(c7ccc(-c8nn(C9CCC(=O)NC9=O)c(=O)n8C)cc7)C6)CC5)cc4)n3)C2)C1=O (stereo partly drawn) [Compound 142],43
7,NC(=O)c1ncc(N2CCCC(N3CCCC3=O)C2)nc1Nc1ccc(C2CCN(C[C@@H]3CCN(c4ccc5c(c4)C(=O)N(C4CCC(=O)NC4=O)C5=O)C3)CC2)cc1 (stereo partly drawn) [Compound 146],37
8,CN1CCN([C@@H]2CCCN(c3cnc(C(N)=O)c(Nc4ccc(C5CCN(C[C@@H]6CCN(c7ccc8c(c7)n(C)c(=O)n8[C@@H]7CCC(=O)NC7=O)C6)CC5)cc4)n3)C2)C1=O [Compound 199],20
9,Cn1c(-c2ccc(N3CCC(CN4CCC(c5ccc(Nc6nc(N7CCC[C@H](N8CCCC8=O)C7)cnc6C(N)=O)cc5)CC4)CC3)cc2)nn(C2CCC(=O)NC2=O)c1=O (stereo partly drawn) [Compound 143],37
10,Cn1cc(Nc2nc(N3CCC[C@@H](N4CCC5(CN(CC6CCN(c7ccc8c(=O)n(C9CCC(=O)NC9=O)ccc8c7)CC6)C5)C4=O)C3)cnc2C(N)=O)cn1 (stereo partly drawn) [Compound 145],100
11,NC(=O)c1ncc(N2CCC[C@H](N3CCCC3=O)C2)nc1Nc1ccc(C2CCN(CC3CCN(c4ccc5c(=O)n(C6CCC(=O)NC6=O)ccc5c4)CC3)CC2)cc1 (stereo partly drawn) [Compound 144],29
12,Cn1c(=O)n([C@@H]2CCC(=O)NC2=O)c2ccc(N3CC[C@H](CN4CCC(c5ccc(Nc6nc(N7CCCCC7)cnc6C(N)=O)cc5)CC4)C3)cc21 [Compound 196],33
13,Cn1c(=O)n([C@@H]2CCC(=O)NC2=O)c2ccc(N3CC[C@@H](CN4CCC(c5ccc(Nc6nc(N7CCCCC7)cnc6C(N)=O)cc5)CC4)C3)cc21 [Compound 197],13

# Same assay, conditions: oral dose 30 mg/kg, 24 h, splenocytes, HTRF
row,SMILES,% BTK Remaining [%]
1,CN1CCN([C@@H]2CCCN(c3cnc(C(N)=O)c(Nc4cnc(N5CCN(C[C@H]6CCN(c7ccc8c(c7)C(=O)N([C@@H]7CCC(=O)NC7=O)C8=O)C6)CC5)nc4)n3)C2)C1=O [Compound 204],87
2,CN1CCN([C@@H]2CCCN(c3cnc(C(N)=O)c(Nc4ccc(C5CCN(CC6CCN(c7ccc(OC8CCC(=O)NC8=O)cn7)CC6)CC5)cc4)n3)C2)C1=O (stereo partly drawn) [Compound 165],29
3,CN1CCN([C@@H]2CCCN(c3cnc(C(N)=O)c(Nc4ccc(C5CCN(CC6CCN(c7cnn(C8CCC(=O)NC8=O)c(=O)c7)CC6)CC5)cc4)n3)C2)C1=O (stereo partly drawn) [Compound 120],59
4,NC(=O)c1ncc(N2CCC[C@@H](N3CCCC3=O)C2)nc1Nc1ccc(N2CC(C3CCN(c4ccc5c(c4)C(=O)N(C4CCC(=O)NC4=O)C5=O)CC3)C2)nc1 (stereo partly drawn) [Compound 168],84
5,CN1CCN([C@@H]2CCCN(c3cnc(C(N)=O)c(Nc4ccc(N5CCN(C[C@H]6CCN(c7ccc8c(c7)C(=O)N(C7CCC(=O)NC7=O)C8=O)C6)CC5)nc4)n3)C2)C1=O (stereo partly drawn) [Compound 113],52
6,"Cc1cc(Nc2nc(N3CCC[C@@H](N4CCC5(CCN(CC6CCN(c7ccc8c(c7)C(=O)N(C7CCC(=O)NC7=O)C8=O)CC6)CC5)C4=O)C3)cnc2C(N)=O)sn1 (stereo partly drawn) [compound 205, 5-[(3R)-3-[8-({1-[2-(2,6-dioxopiperidin-3-yl)-1,3-dioxoisoindol-5-yl]piperidin-4-yl}methyl)-1-oxo-2,8-diazaspiro[4.5]decan-2-yl]piperidin-1-yl]-3-[(3-methyl-1,2-thiazol-5-yl)amino]pyrazine-2-carboxamide]",66
7,NC(=O)c1ncc(N2CCC(F)(F)C(CO)C2)nc1Nc1ccc(C2CCN(C[C@H]3CCN(c4ccc5c(c4)C(=O)N(C4CCC(=O)NC4=O)C5=O)C3)CC2)cc1 (stereo partly drawn) [Compound 175],62
8,CN1CCN([C@@H]2CCCN(c3cnc(C(N)=O)c(Nc4ccc(C5CN(CC6CCN(c7ccc(-c8nn(C9CCC(=O)NC9=O)c(=O)n8C)cc7)CC6)C5)cc4)n3)C2)C1=O (stereo partly drawn) [Compound 119],77
9,NC(=O)c1ncc(N2CCC3(COC3)C2)nc1Nc1ccc(C2CCN(C[C@H]3CCN(c4ccc5c(c4)C(=O)N(C4CCC(=O)NC4=O)C5=O)C3)CC2)cc1 (stereo partly drawn) [Compound 176],48
10,CN1CCN([C@@H]2CCCN(c3cnc(C(N)=O)c(Nc4ccc(C5CN(CC6CCN(c7cnn(C8CCC(=O)NC8=O)c(=O)c7)CC6)C5)cc4)n3)C2)C1=O (stereo partly drawn) [Compound 118],85
11,NC(=O)c1ncc(N2CCCCC2)nc1Nc1ccc(C2CCN(CC3CCN(c4ccc(OC5CCC(=O)NC5=O)cn4)CC3)CC2)cc1 (stereo not drawn) [Compound 164],29

# Same assay, conditions: oral dose 90 mg/kg, 6 h, splenocytes, HTRF
row,SMILES,% BTK Remaining [%]
1,CN1CCN([C@@H]2CCCN(c3cnc(C(N)=O)c(Nc4ccc(N5CCN(C[C@@H]6CCCN(c7ccc8c(c7)C(=O)N(C7CCC(=O)NC7=O)C8=O)C6)CC5)cc4)n3)C2)C1=O (stereo partly drawn) [Compound 46],14
2,CN1CCN([C@@H]2CCCN(c3cnc(C(N)=O)c(Nc4ccc(C5CCN(CCC6CCN(c7ccc8c(c7)C(=O)N(C7CCC(=O)NC7=O)C8=O)CC6)CC5)cc4)n3)C2)C1=O (stereo partly drawn) [Compound 41],15
3,CN1CCN([C@@H]2CCCN(c3cnc(C(N)=O)c(Nc4ccc(N5CCN(C[C@H]6CCCN(c7ccc8c(c7)C(=O)N(C7CCC(=O)NC7=O)C8=O)C6)CC5)cc4)n3)C2)C1=O (stereo partly drawn) [Compound 48],7
4,CN1CCN([C@@H]2CCCN(c3cnc(C(N)=O)c(Nc4ccc(N5CCN(CCC6CN(c7ccc8c(c7)C(=O)N(C7CCC(=O)NC7=O)C8=O)C6)CC5)cc4)n3)C2)C1=O (stereo partly drawn) [Compound 43],4
5,CN1CCN([C@@H]2CCCN(c3cnc(C(N)=O)c(Nc4ccc(C5CCN(C[C@@H]6CCN(c7ccc8c(c7)C(=O)N(C7CCC(=O)NC7=O)C8=O)C6)CC5)cc4)n3)C2)C1=O (stereo partly drawn) [Compound 52],2
6,CN1CCN([C@@H]2CCCN(c3cnc(C(N)=O)c(Nc4ccc(C5CCN(CCC6CN(c7ccc8c(c7)C(=O)N(C7CCC(=O)NC7=O)C8=O)C6)CC5)cc4)n3)C2)C1=O (stereo partly drawn) [Compound 45],8
